Data as given in patent US4617184A, “99m Tc-1,2-dihydroxy-1,2-bis(dihydroxyphosphinyl)ethane complex for skeleton scanning” (priority 1984, dated 1986).

Columns and labels:
[1] = Organ distribution of ^99m Tc-DHPE (freeze dried kit) in rats, i.v. tail vein; format: in vivo, Hooded strain rats; design: Dose per Organ: unit not given here
Procedure: Twenty five milliliters of a sterile aqueous solution of 55.5 mg of DHPE were mixed with 12.5 mL of a freshly prepared sterile aqueous solution containing 0.1 mg of SnCl2 per milliliter and with 12.5 mL of a sterile aqueous solution of sodium acetate 10% W/V. Portions of 2 mL each of the resulting solution were transferred through a Millipore filter of 0.22 micron pore size into pharmaceutical vials. The vials were freeze dried for 24 hours and were sealed in vacuum. Four milliliters of saline solution of Na^+99m TcO4^- (20 millicuries Tc-99m) were added to each vial. The vial was vigorously shaken, and then allowed to stand for five minutes at normal ambient temperature.
Two hundred fifty microliters of the above solution of the radiopharmaceutical ^99m Tc-DHPE were injected i.v. (intravenously) in the tail vein of each of six Hooded strain, closed colony, random breeding rats. The rats were sacrificed at the following time periods 1 hr, 2 hr, 4 hr, 6 hr, 12 hr, and 24 hrs. The organs of each rat were isolated and the distribution of Tc-99m determined by assay with a single channel analyzer equipped with a well type NaI(T1) scintillation detector.
The experimental error in the distribution vs. time data for the ^99m Tc-DHPE complex was minimized by averaging six runs under identical conditions, always with the Hooded strain rats. The effect of organ geometry on radioactivity counting efficiency was taken into account. Corrections were also made so that, upon extrapolation back to time zero, the summation of activity in the organs was equal to the injected activity (i.e. by comparison to standards).

[2] = Gamma camera bone imaging in anesthetized rabbit; format: in vivo
Procedure: Two milliliters of a sterile saline solution of Na^+99m TcO4^- (IO millicuries Tc-99m) were added to a pharmaceutical vial containing 2 mL of a sterile aqueous solution containing 2.2 mg of DHPE, 50μg of SnCl2 and 50 mg of CH3 COONa. The vial was vigorously shaken, then allowed to stand for five minutes at room temperature. Paper chromatography of the solution was run according to the method outlined in Example 1 and only 2% unreacted pertechnetate was found.
Bone imaging was carried out by intravenous injection of 0.5 milliliters of this solution into the ear vein of an anesthetized rabbit positioned under a gamma camera. […] As time passed the quality of the images improved. […] Less than 30% of the initial radioactivity in the blood was detected in the blood 30 minutes after injection.

[3] = Distribution in rats of the complex prepared by electrochemical reduction; format: in vivo, Hooded strain rats; conditions: i.v. tail vein, electrochemically prepared complex
Procedure: Four milliliters of a sterile aqueous solution containing 1.5 mg of DHPE, 20 mg of CH3 COONa and 10 mCi of Na^+99m TcO4^- were added to a sterile cell equipped with tin electrodes. An electrical charge of 5×10^-2 coulombs (20 sec×2.5 mA) was passed through to produce the ^99m Tc-DHPE complex. Paper chromatography of the solution was run according to the method outlined in Example 1. The determined radiochemical purity of the ^99m Tc-DHPE compound was 98%. The complex was assayed by intravenous injections into the tail veins of Hooded strain rats as in Example 1, the animals being sacrificed at 1, 2, 4, 6, 12, and 24 hours.

[4] = Acute and chronic toxicity of DHPE in rodents; format: in vivo; conditions: injected doses 5 to 250 mg per kg of body weight
Description: The amount of complexing agent required to be injected into a test animal or human patient for a satisfactory skeleton scintigraphy is three orders of magnitude smaller than the highest tested dose.

## ^99m Tc-1,2-Dihydroxy-1,2-bis(dihydroxyphosphinyl)ethane Complex [^99m Tc-DHPE]
[1]; ADRENALS, 1 hr
  Dose per Organ: 0.006 ± 0.006
[1]; ADRENALS, 2 hr
  Dose per Organ: 0.007 ± 0.005
[1]; ADRENALS, 4 hr
  Dose per Organ: 0.003 ± 0.001
[1]; ADRENALS, 6 hr
  Dose per Organ: 0.003 ± 0.001
[1]; ADRENALS, 12 hr
  Dose per Organ: 0.001 ± 0.000
[1]; ADRENALS, 24 hr
  Dose per Organ: 0.001 ± 0.000
[1]; BLOOD, 1 hr
  Dose per Organ: 0.742 ± 0.384
[1]; BLOOD, 2 hr
  Dose per Organ: 0.895 ± 0.515
[1]; BLOOD, 4 hr
  Dose per Organ: 0.643 ± 0.414
[1]; BLOOD, 6 hr
  Dose per Organ: 0.322 ± 0.067
[1]; BLOOD, 12 hr
  Dose per Organ: 0.312 ± 0.209
[1]; BLOOD, 24 hr
  Dose per Organ: 0.104 ± 0.015
[1]; BONE, 1 hr
  Dose per Organ: 44.426 ± 2.556
[1]; BONE, 2 hr
  Dose per Organ: 45.722 ± 3.411
[1]; BONE, 4 hr
  Dose per Organ: 53.447 ± 2.828
[1]; BONE, 6 hr
  Dose per Organ: 47.673 ± 6.612
[1]; BONE, 12 hr
  Dose per Organ: 42.362 ± 4.449
[1]; BONE, 24 hr
  Dose per Organ: 43.317 ± 2.825
[1]; FECES, 1 hr
  Dose per Organ: 0.034 ± 0.054
[1]; FECES, 2 hr
  Dose per Organ: 0.053 ± 0.088
[1]; FECES, 4 hr
  Dose per Organ: 0.394 ± 0.343
[1]; FECES, 6 hr
  Dose per Organ: 0.570 ± 0.205
[1]; FECES, 12 hr
  Dose per Organ: 0.848 ± 0.601
[1]; FECES, 24 hr
  Dose per Organ: 3.149 ± 1.799
[1]; HEART, 1 hr
  Dose per Organ: 0.022 ± 0.008
[1]; HEART, 2 hr
  Dose per Organ: 0.026 ± 0.012
[1]; HEART, 4 hr
  Dose per Organ: 0.018 ± 0.008
[1]; HEART, 6 hr
  Dose per Organ: 0.015 ± 0.004
[1]; HEART, 12 hr
  Dose per Organ: 0.011 ± 0.005
[1]; HEART, 24 hr
  Dose per Organ: 0.006 ± 0.001
[1]; KIDNEYS, 1 hr
  Dose per Organ: 1.523 ± 0.371
[1]; KIDNEYS, 2 hr
  Dose per Organ: 1.782 ± 0.365
[1]; KIDNEYS, 4 hr
  Dose per Organ: 1.441 ± 0.277
[1]; KIDNEYS, 6 hr
  Dose per Organ: 2.716 ± 0.365
[1]; KIDNEYS, 12 hr
  Dose per Organ: 3.018 ± 0.825
[1]; KIDNEYS, 24 hr
  Dose per Organ: 1.187 ± 0.119
[1]; LARGE INTESTINE, 1 hr
  Dose per Organ: 1.548 ± 1.380
[1]; LARGE INTESTINE, 2 hr
  Dose per Organ: 2.210 ± 1.789
[1]; LARGE INTESTINE, 4 hr
  Dose per Organ: 2.906 ± 3.009
[1]; LARGE INTESTINE, 6 hr
  Dose per Organ: 3.209 ± 0.684
[1]; LARGE INTESTINE, 12 hr
  Dose per Organ: 0.648 ± 0.615
[1]; LARGE INTESTINE, 24 hr
  Dose per Organ: 0.415 ± 0.448
[1]; LIVER, 1 hr
  Dose per Organ: 0.095 ± 0.018
[1]; LIVER, 2 hr
  Dose per Organ: 0.184 ± 0.049
[1]; LIVER, 4 hr
  Dose per Organ: 0.187 ± 0.032
[1]; LIVER, 6 hr
  Dose per Organ: 0.168 ± 0.044
[1]; LIVER, 12 hr
  Dose per Organ: 0.131 ± 0.022
[1]; LIVER, 24 hr
  Dose per Organ: 0.134 ± 0.030
[1]; LUNGS, 1 hr
  Dose per Organ: 0.104 ± 0.033
[1]; LUNGS, 2 hr
  Dose per Organ: 0.149 ± 0.105
[1]; LUNGS, 4 hr
  Dose per Organ: 0.121 ± 0.029
[1]; LUNGS, 6 hr
  Dose per Organ: 0.032 ± 0.007
[1]; LUNGS, 12 hr
  Dose per Organ: 0.022 ± 0.015
[1]; LUNGS, 24 hr
  Dose per Organ: 0.044 ± 0.024
[1]; MUSCLE, 1 hr
  Dose per Organ: 1.138 ± 0.511
[1]; MUSCLE, 2 hr
  Dose per Organ: 2.371 ± 1.206
[1]; MUSCLE, 4 hr
  Dose per Organ: 2.193 ± 0.974
[1]; MUSCLE, 6 hr
  Dose per Organ: 4.216 ± 2.815
[1]; MUSCLE, 12 hr
  Dose per Organ: 2.139 ± 0.389
[1]; MUSCLE, 24 hr
  Dose per Organ: 2.699 ± 1.989
[1]; SMALL INTESTINE, 1 hr
  Dose per Organ: 0.963 ± 0.868
[1]; SMALL INTESTINE, 2 hr
  Dose per Organ: 1.963 ± 2.085
[1]; SMALL INTESTINE, 4 hr
  Dose per Organ: 1.009 ± 1.243
[1]; SMALL INTESTINE, 6 hr
  Dose per Organ: 0.495 ± 0.205
[1]; SMALL INTESTINE, 12 hr
  Dose per Organ: 0.318 ± 0.113
[1]; SMALL INTESTINE, 24 hr
  Dose per Organ: 0.091 ± 0.033
[1]; SPLEEN, 1 hr
  Dose per Organ: 0.020 ± 0.007
[1]; SPLEEN, 2 hr
  Dose per Organ: 0.026 ± 0.007
[1]; SPLEEN, 4 hr
  Dose per Organ: 0.020 ± 0.003
[1]; SPLEEN, 6 hr
  Dose per Organ: 0.022 ± 0.007
[1]; SPLEEN, 12 hr
  Dose per Organ: 0.008 ± 0.002
[1]; SPLEEN, 24 hr
  Dose per Organ: 0.010 ± 0.004
[1]; STOMACH, 1 hr
  Dose per Organ: 0.288 ± 0.137
[1]; STOMACH, 2 hr
  Dose per Organ: 0.388 ± 0.176
[1]; STOMACH, 4 hr
  Dose per Organ: 0.226 ± 0.243
[1]; STOMACH, 6 hr
  Dose per Organ: 0.152 ± 0.148
[1]; STOMACH, 12 hr
  Dose per Organ: 0.082 ± 0.023
[1]; STOMACH, 24 hr
  Dose per Organ: 0.040 ± 0.029
[1]; URINE, 1 hr
  Dose per Organ: 28.584 ± 5.562
[1]; URINE, 2 hr
  Dose per Organ: 28.295 ± 1.829
[1]; URINE, 4 hr
  Dose per Organ: 31.469 ± 4.991
[1]; URINE, 6 hr
  Dose per Organ: 24.033 ± 5.995
[1]; URINE, 12 hr
  Dose per Organ: 6.519
[1]; URINE, 24 hr
  Dose per Organ: 8.600
[1]; rats, i.v.
  excretion: mainly via the kidneys to urine
  removal from the blood: fast removal
[1]; rats, i.v., in comparison to other organs or tissues
  concentration to the skeleton: fast and high concentration to the skeleton
[2]; 30 minutes after injection
  initial radioactivity in the blood detected in the blood: Less than 30%
[2]; i.v. ear vein
  removal of the radiopharmaceutical from the blood: fast removal
[2]; i.v. ear vein, 1 to 2.5 hrs post injection
  quality of skeleton images: Excellent images of the skeleton
[2]; i.v. ear vein, thirty minutes post injection
  skeleton visualization: clearly visualized
[3]
  excretion: mainly to the urine
  skeleton uptake: rapid skeleton uptake
[3]; effect on bone specificity
  uptake by other organs: did not detract significantly from bone specificity

## O=P(O)(O)C(O)C(O)P(=O)(O)O (centres unmarked) [DHPE, 1,2-dihydroxy-1,2-bis(dihydroxyphosphinyl)ethane]
[4]
  deaths or adverse effects (acute and chronic toxicity): no deaths or adverse effects
